# ChEMBL document CHEMBL1137961, “Benzimidazolone p38 inhibitors” (Bioorg Med Chem Lett, 2004)
# Molecular target: Mitogen-activated protein kinase 14 (Homo sapiens, UniProt Q16539)
# Experiment: Inhibitory activity against mitogen activated protein (MAP) kinase p38 alpha.
# Sequence of Mitogen-activated protein kinase 14 (Q16539 whole entry): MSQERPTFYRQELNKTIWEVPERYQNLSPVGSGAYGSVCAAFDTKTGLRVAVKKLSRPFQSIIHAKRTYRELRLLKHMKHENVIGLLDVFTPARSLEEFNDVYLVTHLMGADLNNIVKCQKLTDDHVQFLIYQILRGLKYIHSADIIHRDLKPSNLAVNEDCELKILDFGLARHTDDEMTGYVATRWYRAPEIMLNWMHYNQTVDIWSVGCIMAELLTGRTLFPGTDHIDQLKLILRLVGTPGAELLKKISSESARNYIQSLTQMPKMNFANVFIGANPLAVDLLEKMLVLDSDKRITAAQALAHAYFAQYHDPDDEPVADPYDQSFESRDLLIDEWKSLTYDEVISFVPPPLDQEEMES
row,Structure (SMILES),IC50
1,CCn1c(=O)n(CC)c2cc(-c3[nH]cnc3-c3cccc(C)c3)ccc21,50 nM
2,Cn1c(=O)n(C)c2cc(-c3c[nH]nc3-c3ccccc3)ccc21,200 nM
3,CCn1c(=O)n(CC)c2cc(-c3cccnc3-c3cccc(C)c3)ccc21,> 1000 nM
4,CCn1c(=O)n(CC)c2cc(-c3ccnn3-c3cccc(C)c3)ccc21,690 nM
5,CCn1c(=O)n(CC)c2cc(-c3cc(-c4cccnc4)[nH]c3-c3cccc(C)c3)ccc21,> 1000 nM
6,Cc1cccc(-c2nc(C3CCNCC3)[nH]c2-c2ccc3c(c2)n(C)c(=O)n3C)c1,70 nM
7,CCn1c(=O)n(CC)c2cc(-c3[nH]c(-c4cccnc4)nc3-c3cccc(C)c3)ccc21,70 nM
8,CCn1c(=O)n(CC)c2cc(-c3c[nH]nc3-c3cccc(C(F)(F)F)c3)ccc21,60 nM
9,CCn1c(=O)n(CC)c2cc(-c3nnnn3-c3ccc(F)c(C)c3)ccc21,> 1000 nM
10,CCn1c(=O)n(CC)c2cc(-c3c[nH]cn3)ccc21,> 1000 nM
11,CCn1c(=O)n(CC)c2cc(-c3c[nH]nc3-c3ccc(F)c(C)c3)ccc21,30 nM
12,Cc1cccc(-n2cncc2-c2ccc3c(c2)n(C)c(=O)n3C)c1,14400 nM
13,CCn1c(=O)n(CC)c2cc(-c3n[nH]cc3-c3cccc(C)c3)ccc21,730 nM
14,Cc1cccc(-c2nc[nH]c2-c2ccc3c(c2)n(C)c(=O)n3C)c1,100 nM
15,CCn1c(=O)n(CC)c2cc(-c3c[nH]nc3-c3cccc(C)c3)ccc21,9 nM
16,CCn1c(=O)n(CC)c2cc(-c3c(-c4ccc(F)cc4)ncn3C3CCNCC3)ccc21,90 nM
17,Cn1c(=O)n(C)c2cc(-c3[nH]cnc3-c3ccccc3)ccc21,290 nM
18,CCn1c(=O)n(CC)c2cc(-c3n[nH]cc3-c3ccccc3)ccc21,680 nM
19,Cc1cccc(-c2nncn2-c2ccc3c(c2)n(C)c(=O)n3C)c1,12500 nM
20,Cn1c(=O)n(C)c2cc(-c3n[nH]cc3-c3ccccc3)ccc21,2500 nM
21,CCn1c(=O)n(CC)c2cc(-c3[nH]cnc3-c3ccc(F)cc3)ccc21,100 nM
22,CCn1c(=O)n(CC)c2cc(-c3[nH]cnc3-c3ccccc3)ccc21,140 nM
23,CCn1c(=O)n(CC)c2cc(-n3nnnc3-c3ccc(F)c(C)c3)ccc21,> 1000 nM
24,Cc1cccc(-c2[nH]c3nc(N)ccc3c2-c2ccc3c(c2)n(C)c(=O)n3C)c1,260 nM
25,Cn1c(=O)n(C)c2cc(-c3[nH]c(-c4cccs4)nc3-c3cccc(OC(F)(F)F)c3)ccc21,15800 nM
26,CCn1c(=O)n(CC)c2cc(-c3c(-c4cccc(C)c4)nc(C4CCNCC4)n3C)ccc21,1250 nM
27,CCn1c(=O)n(CC)c2cc(-c3ocnc3-c3cccc(C)c3)ccc21,800 nM
28,CCn1c(=O)n(CC)c2cc(-c3c[nH]nc3-c3ccccc3)ccc21,200 nM

# Other lines, results leading:
row,IC50,Structure (SMILES)
1,390 nM,Cn1c(=O)n(C)c2cc(-c3[nH]c(-c4cccs4)nc3-c3cccc(F)c3)ccc21
2,6200 nM,Cc1ccccc1-c1nc(-c2cccs2)[nH]c1-c1ccc2c(c1)n(C)c(=O)n2C
3,260 nM,Cn1c(=O)n(C)c2cc(-c3[nH]c(-c4cccs4)nc3-c3ccccc3)ccc21
4,140 nM,Cc1cccc(-c2nc(-c3cccs3)[nH]c2-c2ccc3c(c2)n(C)c(=O)n3C)c1
5,500 nM,CCc1cccc(-c2[nH]c(-c3cccs3)nc2-c2ccc3c(c2)n(C)c(=O)n3C)c1
6,270 nM,Cn1c(=O)n(C)c2cc(-c3[nH]c(-c4cccs4)nc3-c3ccc(F)cc3)ccc21
7,1800 nM,Cc1ccc(-c2nc(-c3cccs3)[nH]c2-c2ccc3c(c2)n(C)c(=O)n3C)cc1
8,> 32000 nM,CC(C)c1cccc(-c2[nH]c(-c3cccs3)nc2-c2ccc3c(c2)n(C)c(=O)n3C)c1
9,200 nM,Cc1cccc(-c2nc(-c3cccnc3)[nH]c2-c2ccc3c(c2)n(C)c(=O)n3C)c1
10,140 nM,Cn1c(=O)n(C)c2cc(-c3[nH]cnc3-c3ccc(F)cc3)ccc21
11,540 nM,Cn1c(=O)n(C)c2cc(-c3[nH]c(-c4cccs4)nc3-c3ccccc3Cl)ccc21
12,1500 nM,Cn1c(=O)n(C)c2cc(-c3[nH]c(-c4cccs4)nc3-c3cccc(C(F)(F)F)c3)ccc21
13,8000 nM,CCc1ccc(-c2[nH]c(-c3cccs3)nc2-c2ccc3c(c2)n(C)c(=O)n3C)cc1
14,4000 nM,Cn1c(=O)n(C)c2cc(-c3[nH]c(-c4ccc([S+](C)[O-])cc4)nc3-c3ccc(F)cc3)ccc21 (stereo not given)
15,370 nM,Cn1c(=O)n(C)c2cc(-c3[nH]c(-c4cccs4)nc3-c3ccccc3F)ccc21
16,680 nM,Cn1c(=O)n(C)c2cc(-c3[nH]c(-c4cccs4)nc3-c3ccc(Cl)cc3)ccc21
17,380 nM,Cn1c(=O)n(C)c2cc(-c3[nH]c(-c4cccs4)nc3-c3cccc(Cl)c3)ccc21
